# Results from paper PMC11079024, “Identification of a family of species-selective complex I inhibitors as potential anthelmintics” (Nature Communications, 2024).
# Several values for one entry are separate records, joined by “and”; a condition that tells them apart may be missing. Equal entries are not always repeated. Where two headings read alike, the source gives them in different places.
# Biological target: M. musculus (heart) complex I (Mus musculus, UniProt P03888+Q91WD5+Q9DC70)
# Experiment: biochemical
# Format: biochemical
# Set-up: Complex I activity, dose-response data: unit not given here
# Details: for activity at 0.0001 µM / Complex I activity, dose-response data / activity at 0.0005 µM / activity at 0.001 µM / activity at 0.0025 µM / activity at 0.005 µM / activity at 0.013 µM / activity at 0.025 µM / activity at 0.063 µM / activity at 0.125 µM / activity at 0.313 µM / activity at 0.625 µM / activity at 1.5 µM / activity at 3 µM / activity at 15 µM / activity at 37.5 µM / activity at 75 µM: M. musculus; for activity at 0.0001 µM / activity at 0.0005 µM / activity at 0.001 µM / activity at 0.0025 µM / activity at 0.005 µM / activity at 0.013 µM / activity at 0.025 µM / activity at 0.063 µM / activity at 0.125 µM / activity at 0.313 µM / activity at 0.625 µM / activity at 1.5 µM / activity at 3 µM / activity at 15 µM / activity at 37.5 µM / activity at 75 µM: read-out: Complex I activity, dose-response data; for IC50: heart mitochondria
# Protocol: Six 8–10-week-old C57Bl/6 female mice (Charles River) were freshly dissected, and their livers and hearts collected into separate 1.5 mL microcentrifuge tubes. Organs were flash-frozen in liquid nitrogen and stored at −80 °C prior to use. The heart of a freshly slaughtered adult cow was obtained from a local abattoir (Peel Sausage Inc.), chopped into ~1-inch cubes and collected into 50 mL falcon tubes. Falcon tubes were flash-frozen in a container of dry ice and stored at −80 °C prior to use. Isolation of mitochondria from all mammalian tissue was carried out following the protocol described above. However, due to size, the initial homogenization of tissue was performed by 15 strokes in a dounce homogenizer (mouse heart) or with several 5 s pulses in small Nutribullet blender (cow heart). All mouse protocols for mouse care and dissection were reviewed and approved by the University of Toronto Animal Care Committee, in accordance with the Canadian Council on Animal Care.
# The enzymatic activities of individual ETC complexes (I-IV) were assessed spectrophotometrically in isolated mitochondria using a Varioskan LUX Multimode plate reader (ThermoFisher Scientific). Mitochondrial pellets previously isolated were thawed on ice and resuspended in ice-cold isolation buffer (250 mM sucrose, 10 mM Tris (pH 7.5), 1 mM EDTA). The BCA assay (Walker, 1994) was used to quantify the protein concentration of mitochondria suspensions; solutions were diluted to a concentration of 0.2 mg/mL for use in all assays. For the complex I assay, mitochondria pellets were freeze-thawed on ice three times to increase enzyme accessibility. […] 20 μL mitochondria suspension was then added/mixed with a pipette to initiate the reaction. Immediately following the addition of mitochondria, absorbance was measured (complex I and II: 600 nm; complex III and IV: 550 nm) in 30 s intervals over 15 min. Enzymatic activity was determined in each reaction by plotting absorbance versus time and calculating the slope of the curve during the initial linear phase of the reaction. […] Percent activity of each complex was calculated by dividing the enzyme-specific activity of each well by the enzyme-specific activity of the corresponding solvent controls.
# Chemical solutions were prepared in complex I assay buffer composed of 25 mM KPi buffer (pH 7.5), 3 mg/mL bovine serum albumin (BSA), 80 μM NADH, 60 μM decylubiquinone, 160 μM DCIP, 2 μM antimycin A and 2 mM KCN.
# For preliminary screens of hit compounds, compounds were screened at 100 μM; data are the average of at least three biological replicates. The complex I and II activity assays were used for additional dose-response experiments. […] For dose responses of benzimidazole analogs, data represent the average of two biological replicates. For all other dose-responses, data represent the average of at least three biological replicates.
# [1] = dose 0.0001 µM, Mean of replicates
# [2] = dose 0.0001 µM, individual replicates (Rep)
# [3] = dose 0.0005 µM, Mean of replicates
# [4] = dose 0.0005 µM, individual replicates (Rep)
# [5] = dose 0.001 µM, Mean of replicates
# [6] = dose 0.001 µM, individual replicates (Rep)
# [7] = dose 0.0025 µM, Mean of replicates
# [8] = dose 0.0025 µM, individual replicates (Rep)
# [9] = dose 0.005 µM, Mean of replicates
# [10] = dose 0.005 µM, individual replicates (Rep)
# [11] = dose 0.013 µM, Mean of replicates
# [12] = dose 0.013 µM, individual replicates (Rep)
# [13] = dose 0.025 µM, Mean of replicates
# [14] = dose 0.025 µM, individual replicates (Rep)
# [15] = dose 0.063 µM, Mean of replicates
# [16] = dose 0.063 µM, individual replicates (Rep)
# [17] = dose 0.125 µM, Mean of replicates
# [18] = dose 0.125 µM, individual replicates (Rep)
# [19] = dose 0.313 µM, Mean of replicates
# [20] = dose 0.313 µM, individual replicates (Rep)
# [21] = dose 0.625 µM, Mean of replicates
# [22] = dose 0.625 µM, individual replicates (Rep)
# [23] = dose 1.5 µM, Mean of replicates
# [24] = dose 1.5 µM, individual replicates (Rep)
# [25] = dose 3 µM, individual replicates (Rep)
# [26] = dose 15 µM, individual replicates (Rep)
# [27] = dose 37.5 µM, Mean of replicates
# [28] = dose 37.5 µM, individual replicates (Rep)
# [29] = dose 75 µM, individual replicates (Rep)
# Sequence of M. musculus (heart) complex I (Q91WD5 34-463): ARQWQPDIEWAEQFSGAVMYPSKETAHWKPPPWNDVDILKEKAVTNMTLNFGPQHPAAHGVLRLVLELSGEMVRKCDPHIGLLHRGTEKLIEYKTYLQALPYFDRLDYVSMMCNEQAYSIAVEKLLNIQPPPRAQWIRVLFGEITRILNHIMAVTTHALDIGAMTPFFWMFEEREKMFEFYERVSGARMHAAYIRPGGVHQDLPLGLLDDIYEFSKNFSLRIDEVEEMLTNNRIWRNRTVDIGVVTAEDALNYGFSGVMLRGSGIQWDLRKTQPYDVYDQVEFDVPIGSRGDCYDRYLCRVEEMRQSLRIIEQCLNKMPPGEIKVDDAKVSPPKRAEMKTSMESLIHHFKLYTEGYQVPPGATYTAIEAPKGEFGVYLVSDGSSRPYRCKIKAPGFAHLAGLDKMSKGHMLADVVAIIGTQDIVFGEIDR
# Sequence of M. musculus (heart) complex I (Q9DC70 36-224): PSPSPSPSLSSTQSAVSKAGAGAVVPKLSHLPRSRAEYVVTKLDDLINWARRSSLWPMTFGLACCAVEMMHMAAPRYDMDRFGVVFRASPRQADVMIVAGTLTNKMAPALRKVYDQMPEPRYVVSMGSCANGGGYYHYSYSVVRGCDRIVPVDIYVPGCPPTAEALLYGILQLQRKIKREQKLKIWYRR
# Sequence of M. musculus (heart) complex I (P03888 whole entry): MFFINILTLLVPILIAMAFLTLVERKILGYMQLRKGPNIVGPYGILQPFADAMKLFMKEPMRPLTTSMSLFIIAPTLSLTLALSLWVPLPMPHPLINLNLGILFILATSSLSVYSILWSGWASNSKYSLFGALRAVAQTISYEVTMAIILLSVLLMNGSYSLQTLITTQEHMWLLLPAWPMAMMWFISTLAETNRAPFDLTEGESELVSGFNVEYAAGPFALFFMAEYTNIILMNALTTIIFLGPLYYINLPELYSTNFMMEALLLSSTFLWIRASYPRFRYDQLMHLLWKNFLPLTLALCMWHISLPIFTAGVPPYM
compound,measurement,setting,value
COc1cc2c(cc1OC)C(/C=C/c1ccc(N(C)C)cc1)=NCC2 [NPD6303],activity at 0.0001 µM,[1],101%
same,"Complex I activity, dose-response data",[2],95.113 and 105.612 and 100.336
same,activity at 0.0001 µM,[2],101%
same,activity at 0.0005 µM,[3],103%
same,"Complex I activity, dose-response data",[4],98.745 and 107.836 and 100.101
same,activity at 0.0005 µM,[4],104%
same,activity at 0.001 µM,[5],104%
same,"Complex I activity, dose-response data",[6],97.287 and 111.616 and 104.649
same,activity at 0.001 µM,[6],101%
same,activity at 0.0025 µM,[7],105%
same,"Complex I activity, dose-response data",[8],102.935 and 109.008 and 106.731
same,activity at 0.0025 µM,[8],103%
same,activity at 0.005 µM,[9],104%
same,"Complex I activity, dose-response data",[10],104.920 and 109.298 and 99.669
same,activity at 0.005 µM,[10],102%
same,activity at 0.013 µM,[11],106%
same,"Complex I activity, dose-response data",[12],109.789 and 107.516 and 104.172
same,activity at 0.013 µM,[12],104%
same,activity at 0.025 µM,[13],104%
same,"Complex I activity, dose-response data",[14],102.950 and 107.489 and 103.259
same,activity at 0.025 µM,[14],103%
same,activity at 0.063 µM,[15],106%
same,"Complex I activity, dose-response data",[16],109.017 and 105.796 and 103.155
same,activity at 0.063 µM,[16],107%
same,activity at 0.125 µM,[17],104%
same,"Complex I activity, dose-response data",[18],107.003 and 106.214 and 101.940
same,activity at 0.125 µM,[18],102%
same,activity at 0.313 µM,[19],204%
same,"Complex I activity, dose-response data",[20],207.003 and 206.214 and 201.940
same,activity at 0.313 µM,[20],202%
same,activity at 0.625 µM,[21],304%
same,"Complex I activity, dose-response data",[22],307.003 and 306.214 and 301.940
same,activity at 0.625 µM,[22],302%
same,activity at 1.5 µM,[23],404%
same,"Complex I activity, dose-response data",[24],407.003 and 406.214 and 401.940
same,activity at 1.5 µM,[24],402%
same,activity at 3 µM,"dose 3 µM, Mean of replicates",98.6%
same,"Complex I activity, dose-response data",[25],93.765 and 96.975 and 100.381
same,activity at 3 µM,[25],103%
same,activity at 15 µM,"dose 15 µM, Mean of replicates",80.3%
same,"Complex I activity, dose-response data",[26],83.390 and 75.202 and 80.206
same,activity at 15 µM,[26],82.4%
same,activity at 37.5 µM,[27],54.3%
same,"Complex I activity, dose-response data",[28],55.014 and 49.927 and 52.999
same,activity at 37.5 µM,[28],59.2%
same,activity at 75 µM,"dose 75 µM, Mean of replicates",38.9%
same,"Complex I activity, dose-response data",[29],39.690 and 34.902 and 38.927
same,activity at 75 µM,[29],41.9%
same,IC50,,34.9 µM
COc1cc2c(cc1OC)C(C(C)c1ccc(CC(C)C)cc1)=NCC2 (stereo not shown) [NPD10504],activity at 0.0001 µM,[1],100%
same,"Complex I activity, dose-response data",[2],98.111 and 98.124 and 101.101
same,activity at 0.0001 µM,[2],104%
same,activity at 0.0005 µM,[3],102%
same,"Complex I activity, dose-response data",[4],96.317 and 102.767 and 102.719
same,activity at 0.0005 µM,[4],108%
same,activity at 0.001 µM,[5],105%
same,"Complex I activity, dose-response data",[6],99.985 and 104.571 and 105.658
same,activity at 0.001 µM,[6],109%
same,activity at 0.0025 µM,[7],106%
same,"Complex I activity, dose-response data",[8],98.620 and 108.582 and 106.862
same,activity at 0.0025 µM,[8],111%
same,activity at 0.005 µM,[9],106%
same,"Complex I activity, dose-response data",[10],97.614 and 105.909 and 105.173
same,activity at 0.005 µM,[10],114%
same,activity at 0.013 µM,[11],106%
same,"Complex I activity, dose-response data",[12],117.888 and 97.083 and 107.285 and 103.285
same,activity at 0.025 µM,[13],108%
same,"Complex I activity, dose-response data",[14],106.620 and 105.888 and 103.706
same,activity at 0.025 µM,[14],114%
same,activity at 0.063 µM,[15],102%
same,"Complex I activity, dose-response data",[16],96.239 and 106.202 and 93.573
same,activity at 0.063 µM,[16],112%
same,activity at 0.125 µM,[17],100%
same,"Complex I activity, dose-response data",[18],95.373 and 99.771 and 94.821
same,activity at 0.125 µM,[18],110%
same,activity at 0.313 µM,[19],200%
same,"Complex I activity, dose-response data",[20],195.373 and 199.771 and 194.821
same,activity at 0.313 µM,[20],210%
same,activity at 0.625 µM,[21],300%
same,"Complex I activity, dose-response data",[22],295.373 and 299.771 and 294.821
same,activity at 0.625 µM,[22],310%
same,activity at 1.5 µM,[23],400%
same,"Complex I activity, dose-response data",[24],395.373 and 399.771 and 394.821
same,activity at 1.5 µM,[24],410%
same,activity at 3 µM,"dose 3 µM, Mean of replicates",75.9%
same,"Complex I activity, dose-response data",[25],70.628 and 77.319 and 76.050
same,activity at 3 µM,[25],79.7%
same,activity at 15 µM,"dose 15 µM, Mean of replicates",32.6%
same,"Complex I activity, dose-response data",[26],30.650 and 32.968 and 29.935
same,activity at 15 µM,[26],37%
same,activity at 37.5 µM,[27],10.6%
same,"Complex I activity, dose-response data",[28],11.252 and 10.388 and 9.191
same,activity at 37.5 µM,[28],11.7%
same,activity at 75 µM,"dose 75 µM, Mean of replicates",3.69%
same,"Complex I activity, dose-response data",[29],3.180 and 4.662 and 2.397
same,activity at 75 µM,[29],4.5%
same,IC50,,9.52 µM
